Laboratory results taken from PMC5602130, “Food and Sex-Related Impacts on the Pharmacokinetics of a Single-Dose of Ginsenoside Compound K in Healthy Subjects” (Frontiers in Pharmacology, 2017).
Like-named read-outs stand apart in the source and are kept apart here.

Experiments:
[1] = Food-effect two-period crossover trial: plasma pharmacokinetics after a single 200 mg oral dose of Ginsenoside CK Tablets; format: in vivo, human; details: for Tmax: median (range)
Procedure: The food-effect trial was an open-label, randomized, two-period, two-treatment crossover trial, carried out from 15 January to 31 March 2015. Subjects (n = 24) were admitted to the clinical facility (Center of Clinical Pharmacology, the Third Xiangya Hospital, Central South University, Changsha, China) and randomized to receive a single 200 mg oral dose of Ginsenoside CK Tablets (4 × 50 mg tablets) either after a 10 h-fasting period or within 30 min after beginning the consumption of a recommended high-fat, high calorie breakfast (150 calories of protein, 250 calories of carbohydrates, 500 to 600 calories of fat; total calories approximately 800–1,000). Tablets were administered with 250 mL of water, to each subject, in each treatment period. Drinking was prohibited for 2 h before and after medication. Apart from this, the amount and time of drinking were not strictly controlled. Subjects had unified, standard meals 4 and 10 h after drug administration. The alternate treatment was conducted after a 14-day washout period.
Serial blood samples (5 mL) for PK assessment were collected from an indwelling catheter or by direct venipuncture prior to the administration (t = 0) and 0.25, 0.5, 1, 1.5, 2, 2.5, 3, 3.5, 4, 5, 6, 8, 12, 24, 36, 48, 72, and 96 h after the administration of ginsenoside CK. We inferred that these sampling times were sufficient for this trial, based on international guidelines (FDA, [2003]; CFDA, [2005]) and our previous results, since the sampling time is longer than at least three terminal half-lives of the drug. Additionally, the mean plasma concentrations of both CK and 20(S)-PPD at 96 h were considerably <1/20 of their Cmax even when the single oral dose at 800 mg (unpublished). Plasma was separated in blood collection tubes by centrifugation (3,000 rpm, 10 min) at 4°C within 1 h after sampling, transferred to labeled storage tubes and stored at −70°C pending workup and analysis.
Descriptive statistics of PK parameters were calculated using established non-compartmental methods, utilizing the WinNonLin version 6.1 software (Pharsight Corporation, USA). The PK parameters determined for each participant included apparent terminal half-life (t1/2), maximum plasma concentration (Cmax), time to Cmax (tmax), area under the plasma concentration-time curve from the time of administration up to the last time point with a measurable concentration post-dose (AUClast), AUC extrapolated to infinity (AUCinf), apparent volume of distribution (V/F), apparent plasma clearance (CL/F) after extravascular administration, mean residence time (MRTlast and MRTinf), and the cumulative excretion rate from urine. The t1/2 was estimated as (ln2)/K, where K represented the slope of the terminal phase of plasma concentration-time profile and was assessed with a weighting factor of 1, using least squares (log-linear regression of at least three data points). The Cmax and tmax were obtained from experimental observations. The values of AUC were calculated using conventional trapezoidal and log-trapezoidal methods and the extrapolated area (Rowland and Tozer, [1995]). CL/F and V/F were calculated as dose/AUCinf and (CL/F)/K, respectively. MRT was calculated as MRT = AUMC/AUC, where AUMC is the area under the first moment curve. The cumulative excretion rate was calculated as the amount of unchanged drug over a time interval in the urine divided by dose, and was expressed as a percentage.
All samples were detected using a LC-MS/MS (API 4000, ABI Company, USA) method, validated at the Institute of Clinical Pharmacology, Central South University (Changsha, China). Concentrations of CK and 20(S)-PPD were measured using a triple quadrupole tandem mass spectrometer in multiple reaction monitoring (MRM) mode, via a positive electrospray ionization source at m/z 621.4→ 160.8 for the CK and m/z 461.5→425.3 for 20(S)-PPD, with a dwell time of 200 ms. […]

[2] = design: method as in unpublished; details: ref unpublished, cited from earlier work
[3] = both sexes, human, plasma, po, 200 mg, single oral 200 mg CK, FO, all subjects
[4] = female, human, plasma, po, 200 mg, single oral 200 mg CK, FO
[5] = female, human, plasma, po, 200 mg, single oral 200 mg CK, HF
[6] = geometric mean ratio FO vs. HF, n = 24
[7] = human, plasma, po, 200 mg, single oral 200 mg CK, FO, all subjects
[8] = human, plasma, po, 200 mg, single oral 200 mg CK, HF, all subjects
[9] = male, human, plasma, po, 200 mg, single oral 200 mg CK, FO
[10] = male, human, plasma, po, 200 mg, single oral 200 mg CK, HF
[11] = plasma, single oral 200 mg CK, FO, female
[12] = plasma, single oral 200 mg CK, FO, male
[13] = plasma, single oral 200 mg CK, HF, male
[14] = single oral 200 mg CK, FO, all subjects
[15] = single oral 200 mg CK, FO, female
[16] = single oral 200 mg CK, FO, male
[17] = single oral 200 mg CK, HF, all subjects
[18] = single oral 200 mg CK, HF, female
[19] = single oral 200 mg CK, HF, male

CC(C)=CCCC(C)(OC1OC(CO)C(O)C(O)C1O)C1CCC2(C)C1C(O)CC1C3(C)CCC(O)C(C)(C)C3CCC12C [CK, 20-O-beta-D-glucopyranosyl-20(S)-protopanaxadiol]
Increase of Cmax, AUClast and AUCinf after HF meal compared to the FO condition ([1]; 24 subjects): about 2 fold
lgAUClast GMR (90%CI) ([1]; FO vs. HF (Female), n = 12): 0.38 (0.28–0.53)
lgCmax GMR (90%CI) ([1]; FO vs. HF (Female), n = 12): 0.45 (0.33–0.62)
lgAUClast GMR (90%CI) ([1]; FO vs. HF (Male), n = 12): 0.49 (0.42–0.57)
lgCmax GMR (90%CI) ([1]; FO vs. HF (Male), n = 12): 0.55 (0.46–0.65)
lgAUClast GMR (90%CI) ([1]; M vs. F (FO), n = 12): 0.74 (0.54–1.02)
lgCmax GMR (90%CI) ([1]; M vs. F (FO), n = 12): 0.77 (0.57–1.04)
lgAUClast GMR (90%CI) ([1]; M vs. F (HF), n = 12): 0.59 (0.46–0.75)
lgCmax GMR (90%CI) ([1]; M vs. F (HF), n = 12): 0.64 (0.46–0.88)
Subjects having measurable CK concentrations at 0.25 h after administration ([1]; after a meal, 20 of 24 subjects): 83%
half-life ([1]; both sexes, human, plasma, oral, 200 mg, FO and HF, male and female groups, read-out: mean t1/2, range over all treatments): 24 to 28.4 h
AUC(0-inf) [1, 3]: 5880 ng·h/mL
AUC(0-t) [1, 3]: 5750 ng·h/mL
AUC(0-t) ([1]; both sexes, human, plasma, po, 200 mg, single oral 200 mg CK, HF, all subjects): 12600 ng·h/mL
Tmax [1, 4]: 3.8 h
Cmax ([1]; female, human, plasma, po, 200 mg, plasma, single oral 200 mg CK, FO, female, read-out: Cmax): 921 ± 505 ng/mL
half-life ([1]; female, human, plasma, po, 200 mg, plasma, single oral 200 mg CK, FO, female, read-out: t1/2 (converted)): 26.9 ± 5.4 h
Cmax ([1]; female, human, plasma, po, 200 mg, plasma, single oral 200 mg CK, HF, female, read-out: Cmax): 1840 ng/mL
half-life ([1]; female, human, plasma, po, 200 mg, plasma, single oral 200 mg CK, HF, female, read-out: t1/2 (converted)): 25.6 ± 3.5 h
MRT inf [1, 4]: 14.5 ± 2.1 h
MRT last [1, 4]: 11.6 ± 1 h
MRT inf [1, 5]: 14.6 ± 1.5 h
MRT last [1, 5]: 12.2 ± 1 h
AUC(0-inf) [1, 4]: 6900 ng·h/mL
AUC(0-t) [1, 4]: 6750 ng·h/mL
AUC(0-inf) [1, 5]: 15900 ng·h/mL
AUC(0-t) [1, 5]: 15600 ng·h/mL
lgAUClast GMR (90%CI) [1, 6]: 0.43 (0.36–0.51)
lgCmax GMR (90%CI) [1, 6]: 0.50 (0.42–0.59)
Tmax [1, 7]: 3.6 h
half-life ([1]; human, plasma, po, 200 mg, plasma, single oral 200 mg CK, FO (fasting overnight), all subjects, read-out: t1/2 (converted)): 27.7 ± 7.9 h
Cmax ([1]; human, plasma, po, 200 mg, plasma, single oral 200 mg CK, FO, all subjects, read-out: Cmax): 797 ± 406 ng/mL
half-life ([1]; human, plasma, po, 200 mg, plasma, single oral 200 mg CK, HF (high-fat meal), all subjects, read-out: t1/2 (converted)): 24.8 ± 3 h
Cmax ([1]; human, plasma, po, 200 mg, plasma, single oral 200 mg CK, HF, all subjects, read-out: Cmax): 1570 ng/mL
MRT inf [1, 7]: 15.1 ± 4.3 h
MRT last [1, 7]: 11.7 ± 1.2 h
MRT inf [1, 8]: 14.6 ± 1.7 h
MRT last [1, 8]: 12.3 ± 1.2 h
Tmax [1, 9]: 3.4 h
Cmax ([1]; male, human, plasma, po, 200 mg, plasma, single oral 200 mg CK, FO, male, read-out: Cmax): 672 ± 236 ng/mL
half-life ([1]; male, human, plasma, po, 200 mg, plasma, single oral 200 mg CK, FO, male, read-out: t1/2 (converted)): 28.4 ± 10 h
Cmax ([1]; male, human, plasma, po, 200 mg, plasma, single oral 200 mg CK, HF, male, read-out: Cmax): 1300 ng/mL
half-life ([1]; male, human, plasma, po, 200 mg, plasma, single oral 200 mg CK, HF, male, read-out: t1/2 (converted)): 24 ± 2.4 h
MRT inf [1, 9]: 15.7 ± 5.7 h
MRT last [1, 9]: 11.9 ± 1.3 h
MRT inf [1, 10]: 14.5 ± 1.9 h
MRT last [1, 10]: 12.4 ± 1.4 h
AUC(0-inf) [1, 9]: 4860 ng·h/mL
AUC(0-t) [1, 9]: 4750 ng·h/mL
AUC(0-inf) [1, 10]: 9810 ng·h/mL
AUC(0-t) [1, 10]: 9630 ng·h/mL
AUClast [1, 11]: 6,747.5 ± 3,408.7 h·ng·ml^−1
Cmax [1, 11]: 921.4 ± 505.1 ng/mL
AUCinf [1, 12]: 4,857.1 ± 1,723.2 h·ng·ml^−1
AUClast [1, 12]: 4,749.9 ± 1,718.1 h·ng·ml^−1
Cmax [1, 12]: 672.2 ± 235.8 ng/mL
Cmax ([1]; plasma, single oral 200 mg CK, HF, female): 1,838.6 ± 404.4 ng·ml^−1
AUClast [1, 13]: 9,633.1 ± 3,313.5 h·ng·ml^−1
Cmax [1, 13]: 1,302.0 ± 632.9 ng·ml^−1
CL/F [1, 14]: 43.4 ± 24.2 L/h
V/F [1, 14]: 1,875 ± 1,899 L
CL/F [1, 15]: 38.0 ± 21.8 L/h
V/F [1, 15]: 1,427 ± 699 L
CL/F [1, 16]: 48.8 ± 26.3 L/h
V/F [1, 16]: 2,323 ± 2,572 L
CL/F [1, 17]: 18.2 ± 9.8 L/h
V/F [1, 17]: 652 ± 381 L
CL/F [1, 18]: 12.8 ± 1.8 L/h
V/F [1, 18]: 477 ± 109 L
CL/F [1, 19]: 23.6 ± 11.6 L/h
V/F [1, 19]: 828 ± 475 L
Effects on vital signs, laboratory tests or 12-lead ECG ([2]; dose range 100–400 mg): no significant effects
Dose range over which exposure increased linearly ([2]; previous clinical trial): 100 to 400 mg
Mean plasma concentration at 96 h as fraction of Cmax ([2]; single oral dose at 800 mg): < 1/20
